ChEMBL document CHEMBL2029336, “S-Adenosylhomocysteine hydrolase of the protozoan parasite Trichomonas vaginalis: potent inhibitory activity of 9-(2-deoxy-2-fluoro-β,D-arabinofuranosyl)adenine” (Bioorg Med Chem Lett, 2012)
Calls of active or inactive are those of the source. No cut-off for these calls is given here.

What was measured:
Trichomonas vaginalis [1] = experiment: Growth inhibition of Trichomonas vaginalis T1 at 100 uM after 24 hrs by hemocytometry; assay type: functional; settings: for inhibition of growth at 100 µM: T1, 24 h, read-out: GI
Trichomonas vaginalis [2] = experiment: Growth inhibition of Trichomonas vaginalis T1 after 24 hrs by hemocytometry; assay type: functional, organism-based; settings: T1, 24 h
Trichomonas vaginalis [3] = experiment: Growth inhibition of mtronidazole-resistant Trichomonas vaginalis after 24 hrs by hemocytometry; assay type: functional, organism-based
CHO-K1 = experiment: Cytotoxicity against CHOK1 cells assessed as morphological changes at 100 uM after 48 hrs by microscopy; assay type: cell-based, Cricetulus griseus; settings: chinese hamster, cho-k1, 48 h

Row | SMILES | inhibition of growth at 100 µM (Trichomonas vaginalis [1]) [%] | other results
1 | Nc1ncnc2c1ncn2[C@@H]1O[C@H](CO)[C@@H](O)[C@H]1F [2'-BETA-FLUORO-2',3'-DEOXYADENOSINE] | 100 | IC50 (Trichomonas vaginalis [2]): 2.94 µM
2 | CCCSS[C@H]1[C@H](O)[C@@H](CO)O[C@H]1n1cnc2c(N)ncnc21 | 66.8 | 
3 | O=c1ccn([C@@H]2O[C@H](C=C(Br)Br)[C@@H](O)[C@H]2O)c(=O)[nH]1 | 12.2 | 
4 | CC(C)CSC[C@H]1O[C@@H](n2cnc3c(N)ncnc32)[C@H](O)[C@@H]1O | 44.9 | 
5 | Nc1ncnc2c1ncn2[C@@H]1O[C@H](CSc2ccc(Cl)cc2)[C@@H](O)[C@H]1O | 51.2 | 
6 | CC(=O)O[C@H]1[C@@H](O)[C@H](n2ccc(=O)[nH]c2=O)O[C@@H]1CO | 22.8 | 
7 | Nc1ncnc2c1ncn2[C@H]1C[C@H](O)[C@@H](CO)O1 [DEOXYADENOSINE] | 48.7 | 
8 | Cc1ncc([N+](=O)[O-])n1CCO [METRONIDAZOLE] |  | IC50 (Trichomonas vaginalis [3]): 0.21 µM
9 | NC[C@H]1O[C@@H](n2cnc3c(N)ncnc32)[C@H](O)[C@@H]1O | 24.1 | 
10 | O=c1ccn([C@H]2C[C@H](O)[C@@H](CI)O2)c(=O)[nH]1 | 21.2 | 
11 | [N-]=[N+]=NC[C@H]1O[C@@H](n2cnc3c(N)ncnc32)[C@H](O)[C@@H]1O | 85.2 | IC50 (Trichomonas vaginalis [2]): 48.5 µM
12 | Nc1ncnc2c1ncn2[C@@H]1O[C@H](CO)[C@@H](O)[C@@H]1Cl | 100 | IC50 (Trichomonas vaginalis [2]): 5.93 µM
13 | N[C@@H]1[C@H](O)[C@@H](CO)O[C@H]1n1ccc(=O)[nH]c1=O | 18.4 | 
14 | Nc1ncnc2c1ncn2[C@@H]1O[C@H](COC(=O)c2ccccc2)[C@@H](O)[C@H]1O | 13.5 | 
15 | Nc1nc(N)c2ncn([C@@H]3O[C@H](CO)[C@@H](O)[C@H]3O)c2n1 | 100 | IC50 (Trichomonas vaginalis [2]): 29.5 µM
16 | Nc1ncnc2c1ncn2[C@@H]1O[C@H](CO)[C@@H](F)[C@H]1O | 100 | IC50 (Trichomonas vaginalis [2]): 1.61 µM
17 | Nc1ncnc2c1ncn2[C@@H]1O[C@H](CO)[C@@H](O)[C@H]1O [ADENOSINE] | 49.7 | 

Row | SMILES | inhibition of growth at 100 µM (Trichomonas vaginalis [1]) [%] | other results
18 | O=c1ccn([C@@H]2O[C@H](CSc3ccccc3)[C@@H](O)[C@H]2O)c(=O)[nH]1 |  | growth inhibition (GI) (Trichomonas vaginalis [1]): inactive
19 | O=c1[nH]cnc2c1ncn2[C@@H]1O[C@H](CO)[C@@H](O)[C@H]1O [INOSINE] | 19.2 | 
20 | Nc1ncnc2c1ncn2[C@@H]1O[C@H](CO)[C@@H](O)[C@@H]1O [VIDARABINE] | 100 | IC50 (Trichomonas vaginalis [2]): 3.6 µM
21 | O=c1ccn([C@@H]2O[C@H](CCl)[C@@H](O)[C@H]2O)c(=O)[nH]1 |  | growth inhibition (GI) (Trichomonas vaginalis [1]): inactive
22 | Nc1ncnc2c1ncn2[C@@H]1O[C@H](CO)C[C@H]1O [CORDYCEPIN] | 94.1 | 
23 | Nc1ncnc2c1ncn2[C@@H]1O[C@H](CO)[C@@H](O)[C@@H]1F | 99.6 | IC50 (Trichomonas vaginalis [2]): 0.09 µM; Activity (CHO-K1): Non-toxic; IC50 (Trichomonas vaginalis [3]): 100 µM
24 | CCCSS[C@@H]1[C@H](O)[C@@H](CO)O[C@H]1n1cnc2c(N)ncnc21 | 43 | 
25 | CCCSS[C@H]1[C@H](O)[C@@H](CO)O[C@H]1n1cnc2c(N)nc(N)nc21 | 6.2 | 
26 | COc1ccc(SC[C@H]2O[C@@H](n3ccc(=O)[nH]c3=O)[C@H](O)[C@@H]2O)cc1 |  | growth inhibition (GI) (Trichomonas vaginalis [1]): inactive
27 | Nc1ncnc2c1ncn2[C@@H]1O[C@H](CO)[C@H](F)[C@H]1O | 57.5 | 
28 | NC[C@H]1O[C@@H](n2cnc3c(NC(=O)c4ccccc4)ncnc32)[C@H](O)[C@@H]1O | 21.7 | 
29 | O=C(Nc1ncnc2c1ncn2[C@@H]1O[C@H](CCl)[C@@H](O)[C@H]1O)c1ccccc1 | 40.7 | 
30 | Nc1ncnc2c1ncn2[C@@H]1O[C@H](CO)[C@H]2O[C@H]21 | 43 | 
31 | Nc1ncnc2c1ncn2[C@@H]1O[C@H](CCl)[C@@H](O)[C@H]1O | 88.9 | IC50 (Trichomonas vaginalis [2]): 53.3 µM
32 | Nc1c2ncn([C@@H]3O[C@H](CO)[C@@H](O)[C@H]3O)c2nc[n+]1[O-] | 37.7 | 
33 | COc1ccc(SC[C@H]2O[C@@H](n3cnc4c(N)ncnc43)[C@H](O)[C@@H]2O)cc1 | 58 | 
